Assay [1] concerns Phosphorylation of ERK1/2 in MIA PaCa-2 cells. The experiment in a line: Phospho-ERK1/2 MSD assay in MIA PaCa-2 cells. The settings on record: read-out: p-ERK IC50 (2 h, MiaPaCa-2; μM). It counts as cell-based. Here is the method: (§1) Phospho-ERK1/2 MSD Assay:
(§2) Sixteen hours prior to compound treatment, MIA PaCa-2 or A549 cells were seeded in 96-well cell culture plates at a density of 25,000 cells/well and incubated at 37° C., 5% CO2. A compound dose-response titration was diluted in growth media, added to appropriate wells of a cell culture plate, and then incubated at 37° C., 5% CO2 for 2 or 4 hours (see Table 15). Following compound treatment, cells were stimulated with 10 ng/mL EGF (Roche 11376454001) for 10 min, washed with ice-cold Dulbecco's phosphate-buffered saline, no Ca2+ or Mg2+ (ThermoFisher Scientific 14190144), and then lysed in RIPA buffer (50 mM Tris-HCl pH 7.5, 1% Igepal, 0.5% sodium deoxycholate, 150 mM NaCl. and 0.5% sodium dodecyl sulfate) containing protease inhibitors (Roche 4693132001) and phosphatase inhibitors (Roche 4906837001). Phosphorylation of ERK1/2 in compound-treated lysates was assayed using Phospho-ERK1/2 Whole Cell Lysate kits (Meso Scale Discovery K151DWD) according to the manufacturer's protocol.

Assay [2] relates to Phosphorylation of ERK1/2 in A549 cells. Put plainly: Phospho-ERK1/2 MSD assay in A549 cells. The settings on record: read-out: p-ERK IC50 (2 h, A549; μM). It counts as cell-based. Here is the method:
as §1
as §2, with “MIA PaCa-2 (ATCC® CRL-1420™) and A549 (ATCC® CCL-185™) cells were cultured in RPMI 1640 Medium (ThermoFisher Scientific 11875093) containing 10% fetal bovine serum (ThermoFisher Scientific 16000044) and 1× penicillin-streptomycin-glutamine (ThermoFisher Scientific 10378016). Sixteen” for “Sixteen”

[3] abbreviates: Homo sapiens, MIA PaCa-2, 2 h, 2 h compound treatment, MIA PaCa-2 cells, EGF stimulated.
[4] abbreviates: Homo sapiens, A549, 2 h, 2 h compound treatment, A549 cells, EGF stimulated.
Setting [5] is: 2 h compound treatment, MIA PaCa-2 cells, EGF stimulated.
The mark [6] stands for this setting: 2 h compound treatment, A549 cells, EGF stimulated.

Structures are written as SMILES. Read-outs that look alike come from different tables or passages of the source.

A word on the IC50: it is the midpoint of a concentration-inhibition curve. In the case of `C=CC(=O)N1C[C@H](C)N(c2nc(=O)n(-c3c(C)ccnc3C(C)C)c3nc(-c4cc(C)sc4C)c(Cl)cc23)C[C@H]1C` (atropisomer, axis not shown; (M)) [Example 92-7, (M)-6-Chloro-4-[(2S,5R)-2,5-dimethyl-4-prop-2-enoyl-piperazin-1-yl]-7-(2,5-dimethyl-3-thienyl)-1-(2-isopropyl-4-methyl-3-pyridyl)pyrido [2,3-d]pyrimidin-2-one], the IC50 in assay [1] (setting [3]) was 0.259 µM; in assay [2] (setting [4]), greater than 7.5 µM.

As to `C=CC(=O)N1C[C@H](C)N(c2nc(=O)n(-c3c(C)ccnc3C(C)C)c3nc(-c4cc(F)c(F)c(F)c4N)c(Cl)cc23)C[C@H]1C` (atropisomer, axis not shown; (M)) [Example 92-38, (M)-7-(2-Amino-3,4,5-trifluoro-phenyl)-6-chloro-4-[(2S,5R)-2,5-dimethyl-4-prop-2-enoyl-piperazin-1-yl]-1-(2-isopropyl-4-methyl-3-pyridyl)pyrido [2,3-d]pyrimidin-2-one], the half-inhibitory concentration (IC50) was 0.042 µM in assay [1] (setting [3]) and greater than 7.5 µM in assay [2] (setting [4]).

As for `C=CC(=O)N1C[C@H](C)N(c2nc(=O)n(-c3c(C)ccnc3C(C)C)c3nc(-c4ccccc4CO)c(F)cc23)C[C@H]1C` (atropisomer, axis not shown; (M)) [Example 94-2, (M)-4-[(2S,5R)-2,5-dimethyl-4-prop-2-enoyl-piperazin-1-yl]-6-fluoro-7-[2-(hydroxymethyl)phenyl]-1-(2-isopropyl-4-methyl-3-pyridyl)pyrido [2,3-d]pyrimidin-2-one], the half-inhibitory concentration (IC50) is 0.204 µM in assay [1] (Homo sapiens, MIA PaCa-2, 2 h) and greater than 7.5 µM in assay [2] (Homo sapiens, A549, 2 h).

With `C=CC(=O)N1C[C@H](C)N(c2nc(=O)n(-c3c(C)ccnc3C(C)C)c3nc(-c4c(F)cccc4[S+](C)[O-])c(Cl)cc23)C[C@H]1C` (atropisomer, axis not shown; (M)) [Example 211-1, (M)-4-((2S,5R)-4-Acryloyl-2,5-dimethylpiperazin-1-yl)-6-chloro-7-(2-fluoro-6-(methylsulfinyl)phenyl)-1-(2-isopropyl-4-methylpyridin-3-yl)pyrido[2,3-d]pyrimidin-2(1H)-one], the figures for the half-maximal inhibitory concentration (IC50) in assay [1] (setting [5]) and in assay [2] (setting [4]) were 0.128 µM and greater than 7.5 µM, respectively.

For the molecule `C=CC(=O)N1C[C@H](C)N(c2nc(=O)n(-c3c(C)ccnc3C(C)C)c3nc(-c4c(F)cccc4[S+](C)[O-])c(Cl)cc23)C[C@H]1C` (atropisomer, axis not shown; (M)) [Example 211-2, (M)-4-((2S,5R)-4-Acryloyl-2,5-dimethylpiperazin-1-yl)-6-chloro-7-(2-fluoro-6-(methylsulfinyl)phenyl)-1-(2-isopropyl-4-methylpyridin-3-yl)pyrido[2,3-d]pyrimidin-2(1H)-one], the IC50 in assay [1] (setting [5]) is 0.106 µM; in assay [2] (setting [6]), greater than 7.5 µM.

In the case of `C=CC(=O)N1C[C@H](C)N(c2nc(=O)n(-c3c(C)ccnc3C(C)C)c3nc(-c4c(F)cccc4[S+](C)[O-])c(Cl)cc23)C[C@H]1C` (atropisomer, axis not shown; (M)) [Example 211-3, (M)-4-((2S,5R)-4-Acryloyl-2,5-dimethylpiperazin-1-yl)-6-chloro-7-(2-fluoro-6-(methylsulfinyl)phenyl)-1-(2-isopropyl-4-methylpyridin-3-yl)pyrido[2,3-d]pyrimidin-2(1H)-one], the IC50 was 0.253 µM in assay [1] (setting [5]) and greater than 7.5 µM in assay [2] (setting [6]).

On to `C=CC(=O)N1C[C@H](C)N(c2nc(=O)n(-c3c(C)ccnc3C(C)C)c3nc(-c4ccccc4[S+](C)[O-])c(Cl)cc23)C[C@H]1C` (atropisomer, axis not shown; (M)) [Example 212-1, (M)-4-((2S,5R)-4-Acryloyl-2,5-dimethylpiperazin-1-yl)-6-chloro-1-(2-isopropyl-4-methylpyridin-3-yl)-7-(2-(methylsulfinyl)phenyl)pyrido[2,3-d]pyrimidin-2(1H)-one], for which the results for the IC50 in assay [1] (setting [5]) and in assay [2] (setting [4]) were 0.705 µM and greater than 7.5 µM, respectively.

With `C=CC(=O)N1C[C@H](C)N(c2nc(=O)n(-c3c(C)ccnc3C(C)C)c3nc(-c4ccccc4[S+](C)[O-])c(Cl)cc23)C[C@H]1C` (atropisomer, axis not shown; (M)) [Example 212-2, (M)-4-((2S,5R)-4-Acryloyl-2,5-dimethylpiperazin-1-yl)-6-chloro-1-(2-isopropyl-4-methylpyridin-3-yl)-7-(2-(methylsulfinyl)phenyl)pyrido[2,3-d]pyrimidin-2(1H)-one], the 50% inhibitory concentration (IC50) in assay [1] (setting [5]) was 0.237 µM; in assay [2] (setting [6]) it was greater than 7.5 µM.

On to `C=CC(=O)N1C[C@H](C)N(c2nc(=O)n(-c3c(C)ccnc3C(C)C)c3nc(-c4c(F)cccc4S(C)(=O)=O)c(Cl)cc23)C[C@H]1C` (atropisomer, axis not shown; (M)) [Example 214, (M)-4-((2S,5R)-4-Acryloyl-2,5-dimethylpiperazin-1-yl)-6-chloro-7-(2-fluoro-6-(methylsulfonyl)phenyl)-1-(2-isopropyl-4-methylpyridin-3-yl)pyrido[2,3-d]pyrimidin-2(1H)-one], for which the IC50 in assay [1] (setting [5]) is 0.025 µM; in assay [2] (setting [6]) it was greater than 7.5 µM.

For `C=CC(=O)N1C[C@H](C)N(c2nc(=O)n(-c3c(C)ccnc3C(C)C)c3nc(-c4c(F)cccc4S(C)(=O)=O)c(Cl)cc23)C[C@H]1C` (atropisomer, axis not shown; (M)) [Example 214-1, (M)-4-((2S,5R)-4-Acryloyl-2,5-dimethylpiperazin-1-yl)-6-chloro-7-(2-fluoro-6-(methylsulfonyl)phenyl)-1-(2-isopropyl-4-methylpyridin-3-yl)pyrido[2,3-d]pyrimidin-2(1H)-one], the IC50 in assay [1] (setting [3]) is 0.03 µM; in assay [2] (setting [4]) it was greater than 7.5 µM.

On to `C=CC(=O)N1C[C@H](C)N(c2nc(=O)n(-c3c(C)ccnc3C(C)C)c3nc(-c4cc(S(C)(=O)=O)ccc4F)c(Cl)cc23)C[C@H]1C` (atropisomer, axis not shown; (M)) [Example 223, (M)-4-((2S,5R)-4-Acryloyl-2,5-dimethylpiperazin-1-yl)-6-chloro-7-(2-fluoro-5-(methylsulfonyl)phenyl)-1-(2-isopropyl-4-methylpyridin-3-yl)pyrido[2,3-d]pyrimidin-2(1H)-one], for which the half-maximal inhibitory concentration (IC50) in assay [1] (setting [3]) was 0.659 µM; in assay [2] (setting [4]), greater than 7.5 µM.

As for `C=CC(=O)N1C[C@H](C)N(c2nc(=O)n(-c3c(C)cncc3C(C)C)c3nc(-c4ccccc4F)c(Cl)cc23)C[C@H]1C` (single isomer, unassigned) [Example 100-8], the results for the IC50 in assay [1] (setting [3]) and in assay [2] (setting [4]) were 0.042 µM and greater than 7.5 µM, respectively.

Turning to `C=CC(=O)N1C[C@H](C)N(c2nc(=O)n(-c3c(C(C)C)ccnc3C(C)C)c3nc(-c4ccccc4Cl)c(Cl)cc23)C[C@H]1C` (single isomer, unassigned) [Example 124-6], the figures for the IC50 in assay [1] (setting [3]) and in assay [2] (setting [4]) were 0.062 µM and greater than 7.5 µM, respectively.

For `C=CC(=O)N1C[C@H](C)N(c2nc(=O)n(-c3c(C(C)C)ccnc3C(C)C)c3nc(-c4ccccc4C)c(Cl)cc23)C[C@H]1C` (single isomer, unassigned) [Example 125-2], the IC50 in assay [1] (setting [5]) is 0.038 µM; in assay [2] (setting [6]) it was greater than 7.5 µM.

For `C=CC(=O)N1C[C@H](C)N(c2nc(=O)n(-c3c(C(C)C)ccnc3C(C)C)c3nc(-c4ccccc4C(F)(F)F)c(Cl)cc23)C[C@H]1C` (single isomer, unassigned) [Example 125-3], the IC50 in assay [1] (setting [5]) is 0.041 µM; in assay [2] (setting [6]), greater than 7.5 µM.

As to `C=CC(=O)N1C[C@H](C)N(c2nc(=O)n(-c3c(C(C)C)ccnc3C(C)C)c3nc(-c4c(O)cccc4F)c(Cl)cc23)C[C@H]1C` (single isomer, unassigned) [Example 125-4], the IC50 in assay [1] (setting [5]) was 0.023 µM; in assay [2] (setting [6]), greater than 7.5 µM.

With `C=CC(=O)N1C[C@H](C)N(c2nc(=O)n(-c3c(C(C)C)ccnc3C(C)C)c3nc(-c4ccccc4Cl)c(Cl)cc23)C[C@H]1C` (single isomer, unassigned) [Example 125-6], the IC50 is 0.105 µM in assay [1] (setting [5]) and greater than 7.5 µM in assay [2] (setting [6]).

`C=CC(=O)N1C[C@H](C)N(c2nc(=O)n(-c3c(C(C)C)ccnc3C(C)C)c3nc(-c4ccccc4)c(Cl)cc23)C[C@H]1C` (single isomer, unassigned) [Example 125-7]: the IC50 in assay [1] (setting [5]) is 0.137 µM; in assay [2] (setting [6]), greater than 7.5 µM.
